The target of one experiment is T1, Rluc-ADGRG2-ΔGPS-β C614A (Mus musculus, UniProt Q8CJ12, C628A).
T1 construct: the entire ECD (including the entire GPS motif) was removed (ADGRG2-ΔGPS-β); expressed in transfected cells; host or cells: HEK293
Nature of the experiment: BRET binding of FITC-VPM-p15. The settings on record: mutant C614A. How it is done:
(§1) The binding capacities of ADGRG2 WT or its mutants for VPM-p15 were determined by BRET assay, which has been used in previous studies ([27], [28], [29]). We fused the N terminus of ADGRG2 with a Rluc fragment and coupled FITC to the C terminus of VPM-p15 to facilitate BRET measurement. We stimulated the HEK293 cells transfected with Rluc-ADGRG2-ΔGPS-β wildtype (WT) or mutants by increasing the concentration of FITC-conjugated VPM-p15, and their binding abilities were determined by fitting the data with the saturation curves.
(§2) In the detection of binding capacities of ADGRG2 WT or its mutants for VPM-p15, HEK293 cells were transfected with Rluc-ADGRG2-ΔGPS-β or mutants. Transfected cells were stimulated by increasing the concentration of FITC-conjugated VPM-p15. Binding capacities were determined by BRET, EC50 values of ADGRG2 WT and its mutants for binding VPM-p15 were calculated by GraphPad, and data were normalized by EC50 of WT.
For orientation: Bioluminescence resonance energy transfer reports proximity on the nanometre scale.

For another experiment, the target named is T2, Rluc-ADGRG2-ΔGPS-β F671A (Mus musculus, UniProt Q8CJ12, F685A).
T2 construct: the entire ECD (including the entire GPS motif) was removed (ADGRG2-ΔGPS-β); expressed in transfected cells; host or cells: HEK293
Nature of the experiment: BRET binding of FITC-VPM-p15. To be noted: mutant F671A. How it is done:
as §1, §2

The next experiment addresses T3, Rluc-ADGRG2-ΔGPS-β F829A (Mus musculus, UniProt Q8CJ12, F843A).
T3 construct: expressed in transfected cells; host or cells: HEK293
Nature of the experiment: BRET binding of FITC-VPM-p15. The settings on record: mutant F829A. How it is done: as §1, §2

Another experiment addresses T4, Rluc-ADGRG2-ΔGPS-β F838A (Mus musculus, UniProt Q8CJ12, F852A).
T4 construct: expressed in transfected cells; host or cells: HEK293
Nature of the experiment: BRET binding of FITC-VPM-p15. To be noted: mutant F838A. How it is done:
as §1, §2

The target of a further experiment is T5, Rluc-ADGRG2-ΔGPS-β I730A (Mus musculus, UniProt Q8CJ12, I744A).
T5 construct: the entire ECD (including the entire GPS motif) was removed (ADGRG2-ΔGPS-β); expressed in transfected cells; host or cells: HEK293
Nature of the experiment: BRET binding of FITC-VPM-p15. The settings on record: mutant I730A. As for the experimental part:
as §1, §2

The target in the next experiment is T6, Rluc-ADGRG2-ΔGPS-β I741A (Mus musculus, UniProt Q8CJ12, I755A).
T6 construct: the entire ECD (including the entire GPS motif) was removed (ADGRG2-ΔGPS-β); expressed in transfected cells; host or cells: HEK293
Nature of the experiment: BRET binding of FITC-VPM-p15. The settings on record: mutant I741A. How it is done: as §1, §2

The next experiment deals with T7, Rluc-ADGRG2-ΔGPS-β L665A (Mus musculus, UniProt Q8CJ12, L679A).
T7 construct: the entire ECD (including the entire GPS motif) was removed (ADGRG2-ΔGPS-β); expressed in transfected cells; host or cells: HEK293
Nature of the experiment: BRET binding of FITC-VPM-p15. To be noted: mutant L665A. How it is done: as §1, §2

The next experiment deals with T8, Rluc-ADGRG2-ΔGPS-β L679A (Mus musculus, UniProt Q8CJ12, L693A).
T8 construct: the entire ECD (including the entire GPS motif) was removed (ADGRG2-ΔGPS-β); expressed in transfected cells; host or cells: HEK293
Nature of the experiment: BRET binding of FITC-VPM-p15. To be noted: mutant L679A. How it is done: as §1, §2

The next experiment concerns the target T9, Rluc-ADGRG2-ΔGPS-β L683A (Mus musculus, UniProt Q8CJ12, L697A).
T9 construct: the entire ECD (including the entire GPS motif) was removed (ADGRG2-ΔGPS-β); expressed in transfected cells; host or cells: HEK293
As to the kind of experiment: BRET binding of FITC-VPM-p15. To be noted: mutant L683A. As for the experimental part: as §1, §2

For the next experiment, the target named is T10, Rluc-ADGRG2-ΔGPS-β M839A (Mus musculus, UniProt Q8CJ12, M853A).
T10 construct: expressed in transfected cells; host or cells: HEK293
As to the kind of experiment: BRET binding of FITC-VPM-p15. The settings on record: mutant M839A. How it is done:
as §1, §2

A further experiment concerns the target T11, Rluc-ADGRG2-ΔGPS-β N759A (Mus musculus, UniProt Q8CJ12, N773A).
T11 construct: the entire ECD (including the entire GPS motif) was removed (ADGRG2-ΔGPS-β); expressed in transfected cells; host or cells: HEK293
Nature of the experiment: BRET binding of FITC-VPM-p15. The settings on record: mutant N759A. As for the experimental part:
as §1, §2

In experiment [1] the target is T12, Rluc-ADGRG2-ΔGPS-β T610A (Mus musculus, UniProt Q8CJ12, T624A).
T12 construct: the entire ECD (including the entire GPS motif) was removed (ADGRG2-ΔGPS-β); expressed in transfected cells; host or cells: HEK293
As to the kind of experiment: BRET binding of FITC-VPM-p15. To be noted: mutant T610A. How it is done: as §1, §2

In a further experiment the target is T13, Rluc-ADGRG2-ΔGPS-β V731A (Mus musculus, UniProt Q8CJ12, V745A).
T13 construct: the entire ECD (including the entire GPS motif) was removed (ADGRG2-ΔGPS-β); expressed in transfected cells; host or cells: HEK293
As to the kind of experiment: BRET binding of FITC-VPM-p15. The settings on record: mutant V731A. As for the experimental part: as §1, §2

In another experiment the target is T14, Rluc-ADGRG2-ΔGPS-β V768A (Mus musculus, UniProt Q8CJ12, V782A).
T14 construct: the entire ECD (including the entire GPS motif) was removed (ADGRG2-ΔGPS-β); expressed in transfected cells; host or cells: HEK293
As to the kind of experiment: BRET binding of FITC-VPM-p15. The settings on record: mutant V768A. As for the experimental part: as §1, §2

In the next experiment the target is T15, Rluc-ADGRG2-ΔGPS-β Y765A (Mus musculus, UniProt Q8CJ12, Y779A).
T15 construct: the entire ECD (including the entire GPS motif) was removed (ADGRG2-ΔGPS-β); expressed in transfected cells; host or cells: HEK293
As to the kind of experiment: BRET binding of FITC-VPM-p15. The settings on record: mutant Y765A. How it is done: as §1, §2

The next experiment concerns the target Rluc-ADGRG2-ΔGPS-β I758A. As to the kind of experiment: BRET binding of FITC-VPM-p15. Set-up: species or system mouse. To be noted: HEK293, BRET saturation binding, repeated 6 times. How it is done: as §1, §2
The next experiment has as its target Rluc-ADGRG2-ΔGPS-β W757A. Nature of the experiment: BRET binding of FITC-VPM-p15. Also on record: species or system mouse. To be noted: HEK293, BRET saturation binding, repeated 6 times. As for the experimental part: as §1, §2
In the next experiment the target is Rluc-ADGRG2-ΔGPS-β W824A. Nature of the experiment: BRET binding of FITC-VPM-p15. Also on record: species or system mouse. The settings on record: HEK293, BRET saturation binding, repeated 6 times. As for the experimental part: as §1, §2
For experiment [2], the target named is T16, Rluc-ADGRG2-ΔGPS-β T610A (mouse, UniProt Q8CJ12-3 38-995, T610A).
T16 construct: ADGRG2 (GPR64), mouse, ADGRG2-ΔGPS-β: the entire ECD removed; source: HEK293, transfected, on cells; not shown: Rluc, N-terminal, kept
Nature of the experiment: FRET or BRET; HEK293 cells transfected with Rluc-ADGRG2-ΔGPS-β WT or mutants, stimulated by increasing concentrations of FITC-conjugated VPM-p15; saturation curves fitted with GraphPad; each experiment repeated 6 times. The settings on record: one partner purified.

The mark [3] stands for this setting: Kd(mutated ADGRG2-ΔGPS-β)/Kd(WT).

Non-standard residues stand in square brackets, D forms with d. Residues, ends and D or L forms follow the SMILES beside them. Primed or numbered codes have the meaning given here. No end group written: not given here. *: point of attachment. FITC = O=C1OC2(c3ccc(O)cc3Oc3cc(O)ccc32)c2ccc(NC(=S)*)cc21; Phe(4-Me) = Cc1ccc(C[C@H](N)C(=O)O)cc1; FITC′ = not defined here

T1 sequence (Q8CJ12 618-1009 C628A limits assumed): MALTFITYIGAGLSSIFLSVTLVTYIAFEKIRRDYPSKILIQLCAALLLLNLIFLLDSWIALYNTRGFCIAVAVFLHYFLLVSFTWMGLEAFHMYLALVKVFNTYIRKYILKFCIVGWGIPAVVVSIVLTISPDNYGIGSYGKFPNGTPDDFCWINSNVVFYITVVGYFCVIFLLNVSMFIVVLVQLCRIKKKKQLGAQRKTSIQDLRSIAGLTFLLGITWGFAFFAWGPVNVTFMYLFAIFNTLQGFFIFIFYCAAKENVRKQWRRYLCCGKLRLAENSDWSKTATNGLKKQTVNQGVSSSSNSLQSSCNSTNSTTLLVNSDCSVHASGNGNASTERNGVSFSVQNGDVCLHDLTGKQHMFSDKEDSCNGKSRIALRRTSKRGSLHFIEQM
T6 sequence (Q8CJ12 618-1009 I755A limits assumed): as the sequence (Q8CJ12 618-1009 C628A limits assumed) above, with A11C, I138A counted along it
T3 sequence (Q8CJ12 614-1009 F843A): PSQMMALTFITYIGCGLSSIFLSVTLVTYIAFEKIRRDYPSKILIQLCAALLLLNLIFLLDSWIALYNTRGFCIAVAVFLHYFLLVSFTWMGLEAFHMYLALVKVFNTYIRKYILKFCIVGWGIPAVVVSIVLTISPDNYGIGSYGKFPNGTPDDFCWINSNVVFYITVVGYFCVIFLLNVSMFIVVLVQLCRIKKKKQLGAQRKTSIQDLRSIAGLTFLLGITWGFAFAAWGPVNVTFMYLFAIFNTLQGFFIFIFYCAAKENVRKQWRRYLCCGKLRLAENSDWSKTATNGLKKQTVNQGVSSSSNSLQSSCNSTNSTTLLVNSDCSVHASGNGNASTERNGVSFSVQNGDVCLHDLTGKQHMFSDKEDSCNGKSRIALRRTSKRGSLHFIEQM
T15 sequence (Q8CJ12 618-1009 Y779A limits assumed): as the sequence (Q8CJ12 618-1009 C628A limits assumed) above, with A11C, Y162A counted along it
T8 sequence (Q8CJ12 618-1009 L693A limits assumed): as the sequence (Q8CJ12 618-1009 C628A limits assumed) above, with A11C, L76A counted along it
T2 sequence (Q8CJ12 618-1009 F685A limits assumed): as the sequence (Q8CJ12 618-1009 C628A limits assumed) above, with A11C, F68A counted along it
T4 sequence (Q8CJ12 614-1009 F852A): as the sequence (Q8CJ12 614-1009 F843A) above, with A230F, F239A counted along it
T5 sequence (Q8CJ12 618-1009 I744A limits assumed): as the sequence (Q8CJ12 618-1009 C628A limits assumed) above, with A11C, I127A counted along it
T11 sequence (Q8CJ12 618-1009 N773A limits assumed): as the sequence (Q8CJ12 618-1009 C628A limits assumed) above, with A11C, N156A counted along it
T14 sequence (Q8CJ12 618-1009 V782A limits assumed): as the sequence (Q8CJ12 618-1009 C628A limits assumed) above, with A11C, V165A counted along it
T12 sequence (Q8CJ12 618-1009 T624A limits assumed): as the sequence (Q8CJ12 618-1009 C628A limits assumed) above, with T7A, A11C counted along it
T9 sequence (Q8CJ12 618-1009 L697A limits assumed): as the sequence (Q8CJ12 618-1009 C628A limits assumed) above, with A11C, L80A counted along it
T7 sequence (Q8CJ12 618-1009 L679A limits assumed): as the sequence (Q8CJ12 618-1009 C628A limits assumed) above, with A11C, L62A counted along it
T10 sequence (Q8CJ12 614-1009 M853A): as the sequence (Q8CJ12 614-1009 F843A) above, with A230F, M240A counted along it
T16 sequence (Q8CJ12 other isoform, or with tags, fused parts or gaps T610A | T610A | T610A T610A): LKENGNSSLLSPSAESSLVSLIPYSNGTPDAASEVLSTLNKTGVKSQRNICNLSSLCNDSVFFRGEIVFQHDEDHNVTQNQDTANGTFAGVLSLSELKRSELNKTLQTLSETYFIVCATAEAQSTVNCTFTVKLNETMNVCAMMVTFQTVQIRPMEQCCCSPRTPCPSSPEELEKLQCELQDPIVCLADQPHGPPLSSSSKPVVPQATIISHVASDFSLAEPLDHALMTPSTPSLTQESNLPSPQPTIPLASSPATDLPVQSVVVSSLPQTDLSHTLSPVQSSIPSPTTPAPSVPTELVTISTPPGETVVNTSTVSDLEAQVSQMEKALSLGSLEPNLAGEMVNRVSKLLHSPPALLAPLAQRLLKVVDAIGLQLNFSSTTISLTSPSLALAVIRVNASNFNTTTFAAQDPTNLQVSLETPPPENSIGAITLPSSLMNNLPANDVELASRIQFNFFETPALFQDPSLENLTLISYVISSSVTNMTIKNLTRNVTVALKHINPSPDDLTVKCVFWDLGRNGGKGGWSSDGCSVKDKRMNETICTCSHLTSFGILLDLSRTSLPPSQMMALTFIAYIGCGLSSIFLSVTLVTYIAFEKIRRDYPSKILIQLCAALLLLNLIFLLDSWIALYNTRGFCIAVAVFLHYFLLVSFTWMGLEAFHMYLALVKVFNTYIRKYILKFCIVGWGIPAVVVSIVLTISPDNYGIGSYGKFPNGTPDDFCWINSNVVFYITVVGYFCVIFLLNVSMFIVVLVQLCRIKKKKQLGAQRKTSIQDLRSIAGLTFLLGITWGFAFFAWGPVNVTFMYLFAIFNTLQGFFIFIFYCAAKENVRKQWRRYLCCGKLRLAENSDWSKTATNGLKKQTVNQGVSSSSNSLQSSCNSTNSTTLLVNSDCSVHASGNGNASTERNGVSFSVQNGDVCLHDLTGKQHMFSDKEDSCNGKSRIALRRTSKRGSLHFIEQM
T13 sequence (Q8CJ12 618-1009 V745A limits assumed): as the sequence (Q8CJ12 618-1009 C628A limits assumed) above, with A11C, V128A counted along it

For the molecule `CC[C@H](C)[C@H](NC(=O)CNC(=O)[C@H](Cc1ccc(C)cc1)NC(=O)[C@H](CO)NC(=O)[C@@H](N)C(C)C)C(=O)N[C@@H](CC(C)C)C(=O)N[C@@H](CC(C)C)C(=O)N[C@@H](CC(=O)O)C(=O)N[C@@H](CC(C)C)C(=O)N[C@@H](CO)C(=O)N[C@@H](CCCNC(=N)N)C(=O)N[C@H](C(=O)N[C@@H](CO)C(=O)N[C@@H](CC(C)C)C(=O)N1CCC[C@H]1C(=O)N[C@@H](CCCCNC(=S)Nc1ccc2c(c1)C(=O)OC21c2ccc(O)cc2Oc2cc(O)ccc21)C(=O)O)[C@@H](C)O` [FITC-VPM-p15] (H-VS[Phe(4-Me)]GILLDLSRTSLPK(FITC)-OH; N-terminus and C-terminus assumed), the Fmut is 1.382 on Rluc-ADGRG2-ΔGPS-β C614A (setting [3]); 0.940 at Rluc-ADGRG2-ΔGPS-β F671A (setting [3]); 0.344 on Rluc-ADGRG2-ΔGPS-β F829A (setting [3]); 0.819 on Rluc-ADGRG2-ΔGPS-β F838A (setting [3]); 1.281 at Rluc-ADGRG2-ΔGPS-β I730A (setting [3]); 0.715 on Rluc-ADGRG2-ΔGPS-β I741A (setting [3]). In addition, the Fmut turned out to be 0.850 at Rluc-ADGRG2-ΔGPS-β L665A (setting [3]); 1.242 at Rluc-ADGRG2-ΔGPS-β L679A (setting [3]); 1.240 at Rluc-ADGRG2-ΔGPS-β L683A (setting [3]); 0.957 at Rluc-ADGRG2-ΔGPS-β M839A (setting [3]); 1.655 at Rluc-ADGRG2-ΔGPS-β N759A (setting [3]); 1.197 at Rluc-ADGRG2-ΔGPS-β T610A [1] (setting [3]). Also, the Fmut at Rluc-ADGRG2-ΔGPS-β V768A (setting [3]) came to 1.112; on Rluc-ADGRG2-ΔGPS-β Y765A (setting [3]), 0.967. Also, the Bmax stood at 0.7934±0.0241 on Rluc-ADGRG2-ΔGPS-β C614A (binding Bmax (BRET)); 0.833±0.050 at Rluc-ADGRG2-ΔGPS-β F671A (binding Bmax (BRET)); 0.817±0.050 on Rluc-ADGRG2-ΔGPS-β F829A (binding Bmax (BRET)); 0.793±0.022 on Rluc-ADGRG2-ΔGPS-β F838A (binding Bmax (BRET)); 0.7950±0.031 on Rluc-ADGRG2-ΔGPS-β I730A (binding Bmax (BRET)); 0.775±0.093 on Rluc-ADGRG2-ΔGPS-β I741A (binding Bmax (BRET)). Further, the Bmax at Rluc-ADGRG2-ΔGPS-β L665A (binding Bmax (BRET)) is reported as 0.799±0.012; on Rluc-ADGRG2-ΔGPS-β L679A (binding Bmax (BRET)) it was 0.7804±0.017; on Rluc-ADGRG2-ΔGPS-β L683A (binding Bmax (BRET)), 0.7887±0.022; on Rluc-ADGRG2-ΔGPS-β M839A (binding Bmax (BRET)), 0.764±0.008; at Rluc-ADGRG2-ΔGPS-β N759A (binding Bmax (BRET)), 0.713±0.011; on Rluc-ADGRG2-ΔGPS-β T610A [1] (binding Bmax (BRET)) it was 0.8072±0.024. Also, the Bmax on Rluc-ADGRG2-ΔGPS-β V731A was determined as 0.7903±0.018; at Rluc-ADGRG2-ΔGPS-β V768A (binding Bmax (BRET)) it was 0.792±0.029; on Rluc-ADGRG2-ΔGPS-β Y765A (binding Bmax (BRET)), 0.796±0.013. The “Binding to mutant (result in words across EC50 / Fmut / Bmax)” value on Rluc-ADGRG2-ΔGPS-β I758A, at Rluc-ADGRG2-ΔGPS-β W757A and at Rluc-ADGRG2-ΔGPS-β W824A was “No binding” in each case.
As to VS[Phe(4-Me)]GILLDLSRTSLP-{FITC′} [FITC-conjugated VPM-p15 (ADGRG2 Stachel peptide p15 T1V/F3Phe(4-Me))], it took 1.12 µM to reach a half-maximal effect with Rluc-ADGRG2-ΔGPS-β T610A [2] (EC50).

As a reminder, the EC50 is the concentration that produces a half-maximal response. Read a high EC50 as a need for much substance.
